{"source": "patent US20090220562A1", "about": "“Osteogenic and anti-adipogenic oxysterols” (priority 2005, published 2009)", "key": {"Runx2": {"tested_on": "Runx2", "experiment": "Runx2 DNA binding and protein expression in M2-10B4 cells", "type": "cell-based, mouse", "settings": "doses of 5-15 μM", "description": "Method: Marrow stromal cells (M2-10B4 (M2)) were treated with doses of 5-15 μM 20S-hydroxycholestrol.\nMethod: Marrow stromal cells (M2-10B4 (M2)) were treated with doses of 5-15 μM20S-hydroxycholestrol. Groups of cells were pre-treated with 22S or 22R.\nMethod: Marrow stromal cells (M2-10B4 (M2)) were pretreated with Wnt signaling inhibitor, DKK-1 (1 μg/ml), then treated with 20S-hydroxycholestrol and 22(8)-hydroxycholesterol."}, "[1]": {"tested_on": "lipoprotein lipase (LPL) and adipocyte P2 gene (aP2)", "experiment": "Northern blotting for adipogenic genes in troglitazone-treated M2 cells", "type": "cell-based, mouse", "settings": "10 μM Tro with 10 μM 20S, 10 days", "description": "RNA isolation and Northern blot analysis—Following treatment of cells under appropriate experimental conditions, total RNA was isolated using the RNA isolation kit from Stratagene (La Jolla, Calif., U.S.A.). Total RNA ([…]) was run on a 1% agarose/formaldehyde gel and transferred to Duralon-UV membranes (Strategene, CA, U.S.A.) and cross-linked with UV light. The membranes were hybridized overnight at 60 degree C. with ^32P-labeled mouse osteocalcin cDNA probe, mouse lipoprotein lipase (LPL), mouse adipocyte protein 2 (aP^2) PCR-generated probes, human 28S or 18S rRNA probes obtained from Geneka Biotechnology (Montreal, Quebec, Canada) and Maxim Biotech (San Francisco, Calif., U.S.A.), respectively. […] The extent of gene induction was determined by densitometry.\nTest 2: (A) M2 cells at confluence were treated in RPMI containing 10% FBS with control vehicle or 10 μM troglitazone (Tro) in the absence or presence of 10 μM 20S or 22S-hydroxycholesterol. After 10 days, adipocytes were visualized by oil Red O staining and quantified by light microscopy, shown in (B). […] After 10 days, total RNA was isolated and analyzed for lipoprotein lipase (LPL), adipocyte P2 gene (aP2) or 18S rRNA expression by Northern blotting as described (Ref). […]"}}}
{"compound": "CC(C)CCC[C@](C)(O)[C@H]1CC[C@H]2[C@@H]3CC=C4C[C@@H](O)CC[C@]4(C)[C@H]3CC[C@@]21C", "note": "[20S-hydroxycholesterol]", "values": [{"measurement": "Runx2 DNA binding and protein expression", "setting": "Runx2", "result": "induction"}, {"measurement": "expression of adipocyte P2 gene (aP2)", "setting": "[1]", "result": "inhibition of the expression"}, {"measurement": "expression of lipoprotein lipase (LPL)", "setting": "[1]", "result": "inhibition of the expression"}]}
